Laboratory results reported in patent publication US20120329770A1, “CEPHALOSPORIN DERIVATIVES USEFUL AS BETA-LACTAMASE INHIBITORS AND COMPOSITIONS AND METHODS OF USE THEREOF” (priority 2010, published 2012).

Tests used:
[1] = target: T1, VIM-2 metallo-β-lactamase (Pseudomonas aeruginosa, UniProt Q9K2N0); assay: Inhibition of β-lactamases, nitrocefin hydrolysis; type: biochemical; settings: nitrocefin 100 μM, 10 min pre-incubation; read-out: IC50 VIM-2 (Class B)
T1 construct: made in house; host or cells: Escherichia coli BL21 (DE3) pLysS carrying pNOR2001
Protocol: VIM-2 metallo-β-lactamase was expressed in Escherichia coli BL21 (DE3) pLysS carrying pNOR2001 (a generous gift from P. Nordmann, Université Paris XI, France) and purified as reported by Poirel et al. (Antimicrob. Agents Chemother. 2000, 44, 891-897). The homogeneity and molecular weight of the mature VIM-2 (29.7 kDa) was determined by SDS-PAGE (Laemmli, U. K. Nature 1970, 227, 680-685). Enzyme concentration was determined from the absorbance at 280 nm (εEM=32,000 M^−1 cm^−1).
(§1) Assay conditions for IC50 determinations involved enzyme concentrations ranging between 2 and 6 nM. The concentration used for the nitrocefin substrate was 100 μM. Assays with OXA-10 and OXA-45 were conducted at pH 7.0 with 100 mM sodium phosphate buffer containing 25 mM sodium bicarbonate. Assays with KPC-2 and GC1 were performed at pH 7.0 in 50 mM HEPES buffer and assays with IMP-1 and VIM-2 were performed in the same buffer with the addition of 500 mM NaCl and 1 μM ZnSO4. BSA was used with all enzymes (except OXA-10 and KPC-2) at concentrations of 0.5-1.0 μg/mL.
(§2) Inhibitors were pre-incubated for 10 minutes at room temperature with enzyme assay solutions prior to the addition of the nitrocefin. […] Enzymatic activity was determined using the initial rate of increase in absorbance at 482 nm

[2] = target: T2, class D β-lactamase OXA-10 (Pseudomonas aeruginosa, UniProt P14489); assay: Inhibition of β-lactamases, nitrocefin hydrolysis; type: biochemical
T2 construct: indicating a post-translational deletion of a 20 amino acid signal peptide; made in house; host or cells: Escherichia coli BL21 (DE3), pET24a-blaOXA-10, purified from culture supernatant
Description: OXA-10 β-lactamase was expressed and purified using a modified protocol of that reported by Golemi et al. (J. Am. Chem. Soc. 2000, 122, 6132-6133). The pET24a plasmid with the blaOXA-10 gene insert, a kind gift from Prof. S. Mobashery (Notre Dame University), was transformed into Escherichia coli BL21 (DE3) and induced with IPTG. Purification of the enzyme was achieved by the addition of ammonium sulfate to the induced culture supernatant. The protein precipitate collected (50-70% ammonium sulfate saturation) was dissolved and dialyzed against 10 mM Tris.SO4 buffer, pH 7.5, and further purified with a DE52 cellulose column (Whatman, UK) equilibrated with the same buffer. The material bound to the column was washed with 10 mM Tris.SO4 buffer, pH 7.5, followed by an elution with a K2SO4 gradient (0-100 mM). Protein fractions containing nitrocefin-hydrolyzing activity were concentrated and purity analyzed by SDS-PAGE. A molecular weight of 27,490 Da for OXA-10 was determined by ESI MS, indicating a post-translational deletion of a 20 amino acid signal peptide.
(§3) Assay conditions for IC50 determinations involved enzyme concentrations ranging between 2 and 6 nM. […]
as §2

[3] = target: T3, class A β-lactamase KPC-2 (Klebsiella pneumoniae, UniProt Q9F663); assay: Inhibition of β-lactamases, nitrocefin hydrolysis; type: biochemical; settings: nitrocefin 100 μM, 10 min pre-incubation
T3 construct: calculated for a mature protein with a 24 amino acid signal peptide removed; made in house; host or cells: Escherichia coli DH5α (pBR322-catI-blaKPC-2)
Protocol: The KPC-2 β-lactamase was purified from Escherichia coli DH5α strain containing the plasmid, pBR322-catI-blaKPC-2, which was kindly provided by Prof. F. van den Akker (Case Western Reserve University). Expression and purification of the enzyme was similar to that reported by Ke et al. (Biochemistry 2007, 46, 5732-5740). A molecular weight of 28,472 Da for the purified KPC-2 was determined by ESI MS. This is in close agreement with that calculated for a mature protein with a 24 amino acid signal peptide removed.
as §1, §2

[4] = target: T4, class C β-lactamase GC1 (Enterobacter cloacae, UniProt Q59401); assay: Inhibition of β-lactamases, nitrocefin hydrolysis; type: biochemical; settings: nitrocefin 100 μM, 10 min pre-incubation
T4 construct: made in house; host or cells: Escherichia coli AS226-51 harbouring pCS100
Protocol: GC1 β-lactamase was purified from Escherichia coli AS226-51 harbouring pCS100, which was a generous gift from Prof. M. Nukaga (Josai International University, Japan). The cell culture was harvested and subjected to a stringent periplasmic lysis protocol according to Crichlow et al. (Biochemistry 1999, 38, 10256-10261.). Purification proceeded similarly to Nukaga et al. (J. Biol. Chem. 2004, 279, 9344-9352.) with cation exchange chromatography (CM Sephadex C-50) equilibrated with 10 mM sodium phosphate buffer (pH 6), followed by elution with a stepwise gradient of increasing NaCl concentration. Fractions containing β-lactamase activity were then applied to a phenylboronate column (MoBiTec, Germany), equilibrated with 20 mM triethanolamine.HCl, pH 7.0, 0.5 M NaCl. The column was washed with the same buffer and then eluted with sterile 0.5 M borate buffer, pH 7.0, 0.5 M NaCl. Active fractions eluted from the phenylboronate column were analyzed for purity via SDS-PAGE, pooled, and concentrated before buffer exchange to 100 mM sodium phosphate, pH 7.0.
as §3, §2

[5] = target: T5, IMP-1 metallo-β-lactamase (Serratia marcescens, UniProt P52699); assay: Inhibition of β-lactamases, nitrocefin hydrolysis; type: biochemical; settings: nitrocefin 100 μM, 10 min pre-incubation; read-out: IC50 IMP-1 (Class B)
T5 construct: made in house; host or cells: Escherichia coli BL21(DE3) carrying pCIP4
Description: IMP-1 metallo-β-lactamase was expressed in Esherichia coli BL21(DE3) carrying pCIP4 and purified as reported by Laraki et al. (Antimicrob. Agents Chemother. 1999, 43, 902-906). The homogeneity of the protein was confirmed by SDS-PAGE according to the method of Laemmli (Nature 1970, 227, 680-685). The molecular weight of purified IMP-1, Mr=25,112±0.5 Da, as determined by ESI-MS, was in agreement with that deduced from its amino acid sequence (Laraki et al. Antimicrob. Agents Chemother. 1999, 43, 890-901).
as §1
Inhibitors were pre-incubated for 10 minutes at room temperature with enzyme assay solutions prior to the addition of the nitrocefin. These compounds were dissolved in DMSO and prepared at various concentrations such that the final concentration of DMSO was 1% during the pre-incubation. The reaction was initiated by the addition of the pre-incubated enzyme-cyclobutanone solution (90 μL) to a solution of nitrocefin in buffer (10 μL). Enzymatic activity was determined using the initial rate of increase in absorbance at 482 nm

[6] = target: class B β-lactamase NDM-1 (Klebsiella pneumoniae, UniProt C7C422); assay: Inhibition of β-lactamases, nitrocefin hydrolysis; type: biochemical; settings: 15 μM nitrocefin
[7] = target: MBL CfiA (Aeromonas hydrophila, UniProt P26918); settings: cited from earlier work
[8] = target: T6, IMP-1 (Serratia marcescens, UniProt P52699); assay: Inhibition of IMP-1-catalyzed hydrolysis of meropenem in vitro (310 nm); type: biochemical
T6 construct: made in house; host or cells: Escherichia coli BL21(DE3) carrying pCIP4
T6 sequence (P52699 19-246 limits assumed): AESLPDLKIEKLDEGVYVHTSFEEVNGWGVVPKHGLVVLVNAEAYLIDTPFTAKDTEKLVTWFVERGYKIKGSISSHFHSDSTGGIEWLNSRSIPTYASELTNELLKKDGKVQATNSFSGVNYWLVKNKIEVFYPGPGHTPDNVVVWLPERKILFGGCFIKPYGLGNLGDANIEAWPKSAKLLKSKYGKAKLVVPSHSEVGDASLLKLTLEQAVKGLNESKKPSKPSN

T2 sequence (P14489 20-266): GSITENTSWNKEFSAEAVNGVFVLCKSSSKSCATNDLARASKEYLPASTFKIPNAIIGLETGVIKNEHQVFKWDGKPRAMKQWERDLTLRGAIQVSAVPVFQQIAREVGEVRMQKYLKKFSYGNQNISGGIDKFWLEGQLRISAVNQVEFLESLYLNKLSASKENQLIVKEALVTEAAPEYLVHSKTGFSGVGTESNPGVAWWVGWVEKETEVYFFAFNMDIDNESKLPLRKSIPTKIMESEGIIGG
T5 sequence (P52699 19-246, looked up): as the sequence (P52699 19-246 limits assumed) above
T3 sequence (Q9F663 25-293, looked up): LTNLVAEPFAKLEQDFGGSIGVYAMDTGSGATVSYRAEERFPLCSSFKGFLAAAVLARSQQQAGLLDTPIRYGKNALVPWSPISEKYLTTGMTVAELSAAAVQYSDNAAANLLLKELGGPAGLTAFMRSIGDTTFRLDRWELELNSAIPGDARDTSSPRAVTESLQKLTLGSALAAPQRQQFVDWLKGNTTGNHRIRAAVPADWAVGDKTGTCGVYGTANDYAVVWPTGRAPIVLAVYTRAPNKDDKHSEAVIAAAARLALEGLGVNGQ
class B β-lactamase NDM-1, sequence (C7C422 29-270, looked up): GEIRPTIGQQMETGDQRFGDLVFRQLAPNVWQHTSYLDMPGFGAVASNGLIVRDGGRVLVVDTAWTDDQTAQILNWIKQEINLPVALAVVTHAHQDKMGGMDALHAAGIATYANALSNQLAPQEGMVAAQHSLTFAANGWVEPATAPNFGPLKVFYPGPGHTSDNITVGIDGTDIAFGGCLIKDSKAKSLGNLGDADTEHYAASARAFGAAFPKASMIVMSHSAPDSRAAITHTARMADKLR
T4 sequence (Q59401 entry or part of it): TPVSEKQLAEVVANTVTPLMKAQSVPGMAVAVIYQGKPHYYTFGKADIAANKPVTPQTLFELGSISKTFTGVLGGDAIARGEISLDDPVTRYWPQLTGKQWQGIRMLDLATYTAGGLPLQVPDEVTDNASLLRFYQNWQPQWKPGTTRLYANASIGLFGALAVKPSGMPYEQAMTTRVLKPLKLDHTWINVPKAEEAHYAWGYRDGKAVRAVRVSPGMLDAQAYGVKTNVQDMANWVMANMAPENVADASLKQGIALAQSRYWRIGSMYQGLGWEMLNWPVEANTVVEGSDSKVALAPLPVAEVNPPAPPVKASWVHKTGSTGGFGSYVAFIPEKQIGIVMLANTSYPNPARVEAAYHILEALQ
MBL CfiA, sequence (P26918 28-254): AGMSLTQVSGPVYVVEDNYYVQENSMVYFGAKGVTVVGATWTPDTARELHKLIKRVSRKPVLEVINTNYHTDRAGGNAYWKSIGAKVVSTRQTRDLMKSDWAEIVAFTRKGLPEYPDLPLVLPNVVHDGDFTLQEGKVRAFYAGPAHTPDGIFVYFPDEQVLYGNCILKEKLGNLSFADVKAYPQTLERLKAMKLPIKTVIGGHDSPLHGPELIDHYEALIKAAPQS

Row | Structure (SMILES) | IC50 [1] | IC50 [2] | IC50 [3] | IC50 [4] | IC50 [5] | IC50 [6] | incubation required for full inactivation of CfiA [7] | performance as inhibitor [8] | protection of meropenem from IMP-1-catalyzed hydrolysis in vitro ([8]; IMP-1 12 nM, meropenem 200 μM, test substance 100 μM, 310 nm)
1 | O=C(Cc1ccc(F)cc1)N[C@@H]1C(=O)N2C(C(=O)O)=C(CSC(=O)c3ccccc3)CS[C@H]12 [drawing 28] | 4.2 µM | 6.3 µM | 104 µM | 11 µM | 8.2 µM | 40 µM | – | – | –
2 | CO[C@@]1(NC(=O)C(C(=O)O)c2ccc(O)cc2)C(=O)N2C(C(=O)O)=C(CSc3nnnn3C)CO[C@@H]21 (stereo partly drawn) [moxalactam] | – | – | – | – | – | – | 14 h | poor performance | poor protection
